Consider eight molecules from ChEMBL document CHEMBL1137046, “Potent and selective proline derived dipeptidyl peptidase IV inhibitors” (Bioorg Med Chem Lett, 2004).

One series concerns the target Dipeptidyl peptidase 2 (Homo sapiens, UniProt Q9UHL4). Description: Inhibition of Quiescent cell prolyl dipeptidase.
Another series addresses T1, Prolyl endopeptidase FAP (Homo sapiens, UniProt Q12884).
T1 sequence (Q12884 whole entry): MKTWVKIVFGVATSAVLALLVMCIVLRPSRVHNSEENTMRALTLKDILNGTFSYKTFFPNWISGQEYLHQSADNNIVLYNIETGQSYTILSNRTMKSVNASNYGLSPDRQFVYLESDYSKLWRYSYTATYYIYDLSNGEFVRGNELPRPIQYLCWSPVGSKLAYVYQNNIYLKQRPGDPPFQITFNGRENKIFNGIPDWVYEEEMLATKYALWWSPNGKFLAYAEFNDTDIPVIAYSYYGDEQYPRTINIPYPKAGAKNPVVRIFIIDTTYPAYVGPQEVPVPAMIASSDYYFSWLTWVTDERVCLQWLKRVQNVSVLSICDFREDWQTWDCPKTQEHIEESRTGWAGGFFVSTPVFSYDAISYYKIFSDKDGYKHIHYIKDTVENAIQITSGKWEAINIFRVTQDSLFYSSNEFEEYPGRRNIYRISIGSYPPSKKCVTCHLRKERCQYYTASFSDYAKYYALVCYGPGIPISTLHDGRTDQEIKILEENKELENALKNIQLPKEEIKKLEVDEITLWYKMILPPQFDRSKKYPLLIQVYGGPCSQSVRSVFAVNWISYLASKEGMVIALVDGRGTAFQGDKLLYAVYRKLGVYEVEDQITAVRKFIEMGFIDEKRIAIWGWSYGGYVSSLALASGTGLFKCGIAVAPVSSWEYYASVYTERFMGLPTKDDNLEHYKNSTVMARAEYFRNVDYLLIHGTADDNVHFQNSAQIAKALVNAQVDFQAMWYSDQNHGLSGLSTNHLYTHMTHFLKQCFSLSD
Kind of series: Inhibition of Fibroblast activation protein alpha (seprase).

Series [1] deals with Voltage-gated inwardly rectifying potassium channel KCNH2 (Homo sapiens, UniProt Q12809). Description: Inhibition of human Potassium channel HERG.
Sequence of Voltage-gated inwardly rectifying potassium channel KCNH2 (Q12809 whole entry): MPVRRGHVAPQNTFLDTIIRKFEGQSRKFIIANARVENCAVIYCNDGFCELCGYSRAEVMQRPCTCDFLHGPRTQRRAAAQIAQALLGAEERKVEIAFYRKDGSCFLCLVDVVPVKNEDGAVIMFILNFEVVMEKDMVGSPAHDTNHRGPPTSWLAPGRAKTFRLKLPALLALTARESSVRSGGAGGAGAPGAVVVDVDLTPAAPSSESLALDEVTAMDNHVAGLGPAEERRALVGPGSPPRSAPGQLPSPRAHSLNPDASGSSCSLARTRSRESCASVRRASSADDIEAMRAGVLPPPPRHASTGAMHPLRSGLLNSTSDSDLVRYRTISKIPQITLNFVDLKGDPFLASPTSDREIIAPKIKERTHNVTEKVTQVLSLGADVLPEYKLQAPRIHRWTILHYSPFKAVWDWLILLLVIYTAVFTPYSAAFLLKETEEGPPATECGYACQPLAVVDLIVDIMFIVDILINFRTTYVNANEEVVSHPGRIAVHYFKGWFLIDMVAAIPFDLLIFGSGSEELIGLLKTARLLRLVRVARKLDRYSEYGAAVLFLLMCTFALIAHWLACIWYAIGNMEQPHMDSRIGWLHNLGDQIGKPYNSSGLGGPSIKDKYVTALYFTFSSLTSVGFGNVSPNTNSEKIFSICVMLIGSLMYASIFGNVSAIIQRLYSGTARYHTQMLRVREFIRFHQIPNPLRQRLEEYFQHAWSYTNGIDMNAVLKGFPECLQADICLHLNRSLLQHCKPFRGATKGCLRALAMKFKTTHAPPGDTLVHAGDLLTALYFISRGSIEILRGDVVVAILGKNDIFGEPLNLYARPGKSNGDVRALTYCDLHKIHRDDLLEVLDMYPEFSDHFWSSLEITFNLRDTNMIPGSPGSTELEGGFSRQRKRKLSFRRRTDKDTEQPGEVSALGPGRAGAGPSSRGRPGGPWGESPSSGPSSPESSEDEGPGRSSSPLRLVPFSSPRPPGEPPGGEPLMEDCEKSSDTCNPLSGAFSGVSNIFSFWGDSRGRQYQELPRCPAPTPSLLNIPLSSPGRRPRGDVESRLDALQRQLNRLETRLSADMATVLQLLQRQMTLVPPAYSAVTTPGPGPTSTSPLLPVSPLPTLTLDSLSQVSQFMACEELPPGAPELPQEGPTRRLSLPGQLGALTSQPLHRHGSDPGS
Another series addresses T2, Prolyl endopeptidase (Homo sapiens, UniProt P48147).
T2 sequence (P48147 whole entry): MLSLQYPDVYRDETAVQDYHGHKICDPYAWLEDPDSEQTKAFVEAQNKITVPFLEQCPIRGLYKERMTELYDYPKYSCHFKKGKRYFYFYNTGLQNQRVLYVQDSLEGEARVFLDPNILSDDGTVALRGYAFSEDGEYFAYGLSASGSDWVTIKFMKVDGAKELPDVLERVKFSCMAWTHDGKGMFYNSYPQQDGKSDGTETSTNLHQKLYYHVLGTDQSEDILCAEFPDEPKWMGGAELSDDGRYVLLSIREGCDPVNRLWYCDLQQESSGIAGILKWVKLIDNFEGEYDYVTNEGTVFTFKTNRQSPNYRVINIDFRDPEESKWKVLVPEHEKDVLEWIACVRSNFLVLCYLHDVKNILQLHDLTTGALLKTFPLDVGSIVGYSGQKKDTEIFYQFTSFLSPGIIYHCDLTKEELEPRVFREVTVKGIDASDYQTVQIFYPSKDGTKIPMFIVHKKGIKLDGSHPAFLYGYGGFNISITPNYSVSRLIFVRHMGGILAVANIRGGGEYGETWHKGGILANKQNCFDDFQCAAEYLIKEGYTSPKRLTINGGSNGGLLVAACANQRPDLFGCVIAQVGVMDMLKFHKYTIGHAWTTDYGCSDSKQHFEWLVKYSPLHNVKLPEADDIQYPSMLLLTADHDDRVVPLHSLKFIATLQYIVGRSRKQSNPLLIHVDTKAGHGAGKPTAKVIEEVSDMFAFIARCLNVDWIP
Kind of series: Inhibition of prolyl endopeptidase.

The target of another series is Dipeptidyl peptidase 8 (Homo sapiens, UniProt Q6V1X1). Description: Inhibition of Dipeptidylpeptidase VIII.
Sequence of Dipeptidyl peptidase 8 (Q6V1X1 whole entry): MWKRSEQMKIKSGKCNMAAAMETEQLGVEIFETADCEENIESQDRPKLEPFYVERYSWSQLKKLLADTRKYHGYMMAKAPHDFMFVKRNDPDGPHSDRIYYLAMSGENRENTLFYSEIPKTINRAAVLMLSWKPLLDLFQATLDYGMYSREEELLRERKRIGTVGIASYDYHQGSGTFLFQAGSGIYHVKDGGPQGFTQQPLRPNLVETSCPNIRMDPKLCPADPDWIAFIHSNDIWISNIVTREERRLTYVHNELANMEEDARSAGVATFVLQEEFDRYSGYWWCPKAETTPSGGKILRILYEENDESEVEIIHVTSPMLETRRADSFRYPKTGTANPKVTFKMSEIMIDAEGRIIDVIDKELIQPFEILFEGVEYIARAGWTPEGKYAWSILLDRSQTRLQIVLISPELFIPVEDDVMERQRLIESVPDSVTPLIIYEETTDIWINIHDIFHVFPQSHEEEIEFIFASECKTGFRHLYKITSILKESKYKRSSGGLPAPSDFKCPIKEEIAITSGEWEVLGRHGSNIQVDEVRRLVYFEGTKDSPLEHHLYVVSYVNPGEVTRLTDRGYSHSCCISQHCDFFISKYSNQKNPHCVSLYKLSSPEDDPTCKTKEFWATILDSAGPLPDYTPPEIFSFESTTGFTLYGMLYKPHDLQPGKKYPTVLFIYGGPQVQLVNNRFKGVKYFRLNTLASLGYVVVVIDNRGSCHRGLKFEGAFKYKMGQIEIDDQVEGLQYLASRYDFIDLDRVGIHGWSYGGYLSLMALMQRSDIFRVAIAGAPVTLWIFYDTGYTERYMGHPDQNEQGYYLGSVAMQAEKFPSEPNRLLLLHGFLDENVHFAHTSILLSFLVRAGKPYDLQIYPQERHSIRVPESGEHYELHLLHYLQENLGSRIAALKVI
Series [2] is described as follows: Half-life in rats ([…]/[…] mg/kg i.v./p.o.). Type of series: ADME, organism-based. The settings on record: rat, in vivo, 2 mg/kg.
In another series the target is T3, Xaa-Pro dipeptidase (Homo sapiens, UniProt P12955).
T3 sequence (P12955 whole entry): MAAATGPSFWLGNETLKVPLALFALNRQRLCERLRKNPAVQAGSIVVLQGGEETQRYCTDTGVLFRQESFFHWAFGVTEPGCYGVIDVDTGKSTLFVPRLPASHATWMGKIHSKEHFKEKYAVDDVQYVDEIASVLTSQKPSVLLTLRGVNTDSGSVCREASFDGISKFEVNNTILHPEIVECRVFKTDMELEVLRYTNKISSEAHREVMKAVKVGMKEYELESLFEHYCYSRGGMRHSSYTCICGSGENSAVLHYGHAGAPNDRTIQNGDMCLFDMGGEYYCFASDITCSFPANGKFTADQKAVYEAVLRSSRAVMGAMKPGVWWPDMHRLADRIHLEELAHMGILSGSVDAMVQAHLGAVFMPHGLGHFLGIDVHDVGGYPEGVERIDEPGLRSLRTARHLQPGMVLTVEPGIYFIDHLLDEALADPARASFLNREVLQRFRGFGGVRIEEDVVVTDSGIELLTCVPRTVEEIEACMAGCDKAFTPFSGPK
Kind of series: Inhibition of prolidase.

The next series concerns the target Dipeptidyl peptidase 9 (Homo sapiens, UniProt Q86TI2). Kind of series: Inhibition of Dipeptidylpeptidase IX.
A short description of series [3]: Inhibition of Aminopeptidase P.
For a further series, the target named is Dipeptidyl peptidase 4 (Homo sapiens, UniProt P27487). Kind of series: Inhibition of human recombinant Dipeptidylpeptidase IV.
Sequence of Dipeptidyl peptidase 4 (P27487 whole entry): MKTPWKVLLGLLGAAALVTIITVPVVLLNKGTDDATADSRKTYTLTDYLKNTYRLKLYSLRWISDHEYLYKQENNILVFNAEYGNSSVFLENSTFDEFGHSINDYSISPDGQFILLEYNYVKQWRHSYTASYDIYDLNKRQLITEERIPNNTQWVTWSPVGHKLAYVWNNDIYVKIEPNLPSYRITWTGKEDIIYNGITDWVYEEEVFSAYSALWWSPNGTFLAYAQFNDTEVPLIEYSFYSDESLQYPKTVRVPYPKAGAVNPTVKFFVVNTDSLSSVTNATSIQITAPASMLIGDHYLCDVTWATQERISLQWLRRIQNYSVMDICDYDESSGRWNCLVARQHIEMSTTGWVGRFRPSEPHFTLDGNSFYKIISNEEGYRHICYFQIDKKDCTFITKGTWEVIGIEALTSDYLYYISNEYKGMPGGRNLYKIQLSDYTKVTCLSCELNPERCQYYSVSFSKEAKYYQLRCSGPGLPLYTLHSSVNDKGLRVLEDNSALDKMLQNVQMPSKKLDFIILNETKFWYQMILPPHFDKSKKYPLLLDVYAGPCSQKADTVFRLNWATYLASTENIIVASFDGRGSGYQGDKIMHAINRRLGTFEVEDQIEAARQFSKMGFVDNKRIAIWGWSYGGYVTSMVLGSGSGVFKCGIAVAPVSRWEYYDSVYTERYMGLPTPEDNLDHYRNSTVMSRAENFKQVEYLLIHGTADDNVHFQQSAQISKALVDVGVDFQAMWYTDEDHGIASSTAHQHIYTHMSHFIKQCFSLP
The nature of series [4]: Plasma clearance in rats (1/2 mg/kg i.v./p.o.). The settings on record: rat, 1 mg/kg i.v. In kind it is ADME, organism-based.
The nature of series [5]: Oral bioavailability in rat (dose 1 mg/kg i.v. and 2 mg/kg p.o.). Type of series: ADME, organism-based. The settings on record: in vivo.

Sequence of Dipeptidyl peptidase 9 (Q86TI2 whole entry): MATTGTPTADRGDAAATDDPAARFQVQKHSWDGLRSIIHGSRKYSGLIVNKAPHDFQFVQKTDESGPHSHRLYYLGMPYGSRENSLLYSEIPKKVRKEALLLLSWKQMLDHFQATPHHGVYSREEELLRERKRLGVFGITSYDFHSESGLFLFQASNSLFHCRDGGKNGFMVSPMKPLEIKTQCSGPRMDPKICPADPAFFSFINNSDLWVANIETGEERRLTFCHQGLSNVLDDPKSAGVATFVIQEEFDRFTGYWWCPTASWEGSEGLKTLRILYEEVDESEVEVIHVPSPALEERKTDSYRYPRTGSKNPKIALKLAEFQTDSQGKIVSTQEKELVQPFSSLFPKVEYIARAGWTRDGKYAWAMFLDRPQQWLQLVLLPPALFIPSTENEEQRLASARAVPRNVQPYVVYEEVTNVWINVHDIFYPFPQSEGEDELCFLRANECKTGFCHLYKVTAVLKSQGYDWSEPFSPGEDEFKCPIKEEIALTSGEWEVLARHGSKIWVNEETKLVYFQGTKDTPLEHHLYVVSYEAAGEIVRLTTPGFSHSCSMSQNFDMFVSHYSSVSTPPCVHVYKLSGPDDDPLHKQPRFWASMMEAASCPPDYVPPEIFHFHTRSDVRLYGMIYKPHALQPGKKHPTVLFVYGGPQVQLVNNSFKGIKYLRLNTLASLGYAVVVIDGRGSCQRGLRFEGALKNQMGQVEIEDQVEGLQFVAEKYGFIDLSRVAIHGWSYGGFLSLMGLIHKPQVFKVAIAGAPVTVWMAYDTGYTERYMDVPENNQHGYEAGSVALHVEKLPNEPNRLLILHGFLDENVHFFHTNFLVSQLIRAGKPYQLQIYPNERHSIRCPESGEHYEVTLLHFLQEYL

Regarding `CC(C)[C@@H](Oc1ccc(CNC(=O)[C@@H]2CCCN2C(=O)C(N)C2CCCCC2)cc1)C(=O)O` (stereo not given in full), the half-inhibitory concentration (IC50) is more than 100 µM against Dipeptidyl peptidase 2, more than 100 µM on Prolyl endopeptidase FAP, more than 90 µM in series [1] and more than 100 µM against Prolyl endopeptidase.

Take `CC(C)[C@@H](Oc1ccc(CNC(=O)[C@@H]2CCCN2C(=O)CC(N)Cc2cc(F)ccc2F)cc1)C(=O)O.O=C(O)C(F)(F)F` (stereo not given in full): the IC50 was more than 100 µM against Dipeptidyl peptidase 8; more than 100 µM on Xaa-Pro dipeptidase; more than 100 µM against Dipeptidyl peptidase 2; 86 µM on Dipeptidyl peptidase 9; 21 µM at Prolyl endopeptidase FAP; 39 µM against Prolyl endopeptidase. In addition, the half-inhibitory concentration (IC50) in series [3] is more than 100 µM; on Dipeptidyl peptidase 4, 0.00048 µM. This molecule also gave a half-life in series [2] of 37.8 min. In addition, in [4], the clearance came out at 150 mL/min/kg.

In the case of `NC(CC(=O)N1CSC[C@H]1C(=O)NCc1ccc(CC(=O)O)cc1)Cc1ccccc1F.O=C(O)C(F)(F)F` (stereo not given in full), the IC50 against Dipeptidyl peptidase 8 is more than 50 µM; against Dipeptidyl peptidase 2 it was more than 100 µM; on Prolyl endopeptidase FAP, more than 100 µM. In addition, in series [2], the half-life is 11.4 min. The molecule further gave a bioavailability in series [5] of 10%. Further, the clearance in [4] is 25 mL/min/kg.

With `NC(CC(=O)N1CCC[C@H]1C(=O)NCc1ccc(C(=O)O)cc1)Cc1ccc(F)c(F)c1.O=C(O)C(F)(F)F` (stereo not given in full), the IC50 against Dipeptidyl peptidase 8, against Dipeptidyl peptidase 2, against Dipeptidyl peptidase 9 and at Prolyl endopeptidase FAP was more than 100 µM in each case. In series [2], this molecule had a half-life of 21.6 min. The molecule also had a bioavailability in series [5] of less than 1%. Moreover, the clearance in series [4] turned out to be 47 mL/min/kg.

As to `NC(CC(=O)N1CCC[C@H]1C(=O)NCc1ccc(C(F)(F)F)cc1)Cc1ccccc1F.O=C(O)C(F)(F)F` (stereo not given in full), the IC50 was 5.3 µM against Dipeptidyl peptidase 8; more than 100 µM on Xaa-Pro dipeptidase; 55 µM on Dipeptidyl peptidase 2; more than 100 µM against Dipeptidyl peptidase 9; more than 100 µM on Prolyl endopeptidase FAP; more than 100 µM in series [3]. Besides, the IC50 at Dipeptidyl peptidase 4 came to 0.721 µM. In series [2], this molecule showed a half-life of 46.8 min. This molecule displayed a bioavailability in series [5] of 38%. This molecule displayed a clearance in series [4] of 78 mL/min/kg.

For `NC(CC(=O)N1CCC[C@H]1C(=O)NCCCCc1nn[nH]n1)Cc1ccccc1F.O=C(O)C(F)(F)F` (stereo not given in full), the concentration for half-maximal inhibition (IC50) (on Dipeptidyl peptidase 8; against Xaa-Pro dipeptidase; at Dipeptidyl peptidase 2; at Dipeptidyl peptidase 9; against Prolyl endopeptidase FAP; in [3]) was more than 100 µM each time. Further, the concentration for half-maximal inhibition (IC50) at Dipeptidyl peptidase 4 came to 0.039 µM. Moreover, in [2], the half-life is 12 min. In series [5], this molecule came in with a bioavailability of less than 1%. Also, the clearance in series [4] amounted to 54 mL/min/kg.

For the molecule `COC(=O)Cc1ccc(CNC(=O)[C@@H]2CSCN2C(=O)CC(N)Cc2ccccc2F)cc1.O=C(O)C(F)(F)F` (stereo not given in full), the IC50 is more than 100 µM on Dipeptidyl peptidase 8; more than 100 µM at Xaa-Pro dipeptidase; 59 µM at Dipeptidyl peptidase 2; more than 100 µM at Dipeptidyl peptidase 9; more than 100 µM against Prolyl endopeptidase FAP; 9.7 µM in series [1]. For the same molecule, the values for the 50% inhibitory concentration (IC50) (against Prolyl endopeptidase; in series [3]; on Dipeptidyl peptidase 4) were 100 µM, more than 100 µM and 0.087 µM, respectively. Moreover, the half-life in series [2] is 6 min. The molecule also yielded a bioavailability in [5] of 11%. The molecule further gave a clearance in series [4] of 140 mL/min/kg.

Turning to `CC(C)[C@@H](Oc1ccc(CNC(=O)[C@@H]2CCCN2C(=O)CC(N)Cc2c(F)c(F)c(F)c(F)c2F)cc1)C(=O)O.O=C(O)C(F)(F)F` (stereo not given in full), the IC50 is more than 100 µM on Dipeptidyl peptidase 8; more than 100 µM on Xaa-Pro dipeptidase; more than 100 µM against Dipeptidyl peptidase 2; more than 100 µM against Dipeptidyl peptidase 9; 48 µM at Prolyl endopeptidase FAP; more than 100 µM against Prolyl endopeptidase. Moreover, the 50% inhibitory concentration (IC50) in series [3] is more than 100 µM; on Dipeptidyl peptidase 4, 0.0082 µM. The molecule further showed a half-life in series [2] of 21.6 min. Further, the bioavailability in series [5] is less than 1%. For the same molecule, the clearance in series [4] came out at 47 mL/min/kg.
